Test results published in patent publication US8278293B2, “Diazo bicyclic Smac mimetics and the uses thereof” (The Regents of the University of Michigan, priority 2007, dated 2012).
Read-outs that look alike come from different tables or passages of the source.

Key:
[1] = tested on: SK-OV-3 ovarian cancer cell line; experiment: Cell growth inhibition, WST-8 assay, SK-OV-3; type: cell-based; conditions: for IC50: 4 days, WST-8, read-out: SK-OV-3 IC50
Method: (§1) The effect of the compounds of the present invention on the growth of various cancer cell lines was tested. Cells were seeded in 96-well flat bottom cell culture plates at a density of 3000 cells/well with a tested compound and incubated at 37° C. in an atmosphere of 95% air and 5% CO2 for 4 days. […] Dojindo Molecular Technologies, Inc., Gaithersburg, Md.). […] The absorbance of the samples was measured at 450 nm using a ULTRA Tecan Reader (Molecular Device). […] The ability of SM-406 to inhibit cell growth as a single agent was tested in the MDA-MB-231 breast cancer cell line, SK-OV-3 and OVCAR-4 ovarian cancer cell lines and SK-MeI-2 melanoma cancer cell line. Cells were treated for 4 days. Cell growth was determined using a WST-based assay.

XIAP BIR3 = XIAP BIR3 (Homo sapiens, UniProt P98170); experiment: Fluorescence polarization (FP) based competitive binding assay to XIAP BIR3; parameters: human XIAP (residues 241-356) fused to His-tag; His-tag; conditions: for IC50: FP binding, XIAP BIR3 30 nM, SM5F 5 nM
Sequence of XIAP BIR3 (P98170 241-356): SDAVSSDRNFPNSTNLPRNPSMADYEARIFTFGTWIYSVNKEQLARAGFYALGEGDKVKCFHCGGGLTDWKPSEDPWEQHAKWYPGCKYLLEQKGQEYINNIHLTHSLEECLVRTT

[2] = tested on: MDA-MB-231 human breast cancer cell line; experiment: Cell growth inhibition, WST-8 assay, MDA-MB-231; type: cell-based
Method: as §1

[3] = Homo sapiens, MDA-MB-231, 96 h, 4 days, WST-8, read-out: MDA-MB-231 IC50
[4] = Homo sapiens, MDA-MB-231, 96 h, read-out: MDA-MB-231 IC50 (μM)

Structure (SMILES)	IC50 ([1]; Homo sapiens, SK-OV-3, 96 h) [nM]	IC50 (XIAP BIR3) [nM]	IC50 [2, 3] [µM]	other results
CN[C@@H](C)C(=O)N[C@H]1CN(C(=O)CC(C)C)CC[C@H]2CC[C@@H](C(=O)N[C@@H]3CCCc4ccccc43)N2C1=O [SM-427]	< 1000	< 1000	< 1	–
CN[C@@H](C)C(=O)N[C@H]1CN(C(=O)Cc2ccc(F)cc2F)CC[C@H]2CCC(C(=O)NC(c3ccccc3)c3ccccc3)N2C1=O (some centres unmarked) [SM-356]	–	< 1000	< 1	–
CN[C@@H](C)C(=O)N[C@H]1CN(C(=O)Cc2ccccc2)CC[C@H]2CC[C@@H](C(=O)NC3CCCc4ccccc43)N2C1=O (some centres unmarked) [SM-376]	< 1000	< 100	< 1	–
CN[C@@H](C)C(=O)N[C@H]1CN(C(=O)C(C)C)CC[C@H]2CC[C@@H](C(=O)NC(c3ccc(F)cc3)c3ccc(F)cc3)N2C1=O [SM-209]	< 10000	< 1000	< 10	–
CN[C@@H](C)C(=O)N[C@H]1CN(C(=O)Cc2ccccc2)CC[C@H]2CC[C@@H](C(=O)NC(c3ccc(F)cc3)c3ccc(F)cc3)N2C1=O [SM-403]	< 1000	< 1000	< 1	–
CN[C@@H](C)C(=O)N[C@H]1CN(C(=O)CCn2ccnc2)CC[C@H]2CC[C@@H](C(=O)NC(c3ccccc3)c3ccccc3)N2C1=O [SM-414]	< 100000	< 1000	< 100	–
CN[C@@H](C)C(=O)N[C@H]1CN(C(=O)CC(C)C)CC[C@H]2CC[C@@H](CN(Cc3ccccc3)C(C)=O)N2C1=O [SM-230]	< 100000	< 10000	< 100	–
CN[C@@H](C)C(=O)N[C@H]1CN(C)CC[C@H]2CC[C@@H](C(=O)NC(c3ccccc3)c3ccccc3)N2C1=O [YP-245P3]	–	–	–	cellular activity in SK-OV-3 compared with SM-122 ([1]; relative to SM-122): less than that of SM-122; binding affinity to XIAP BIR3 compared with SM-122 (XIAP BIR3; relative to carbocyclic analog SM-122): less than that of SM-122; IC50 [2, 4]: > 1 µM; cellular activity in MDA-MB-231 compared with SM-122 ([2]; relative to SM-122): less than that of SM-122
CN[C@@H](C)C(=O)N[C@H]1CN(C(=O)CC(C)C)CC[C@H]2CC[C@@H](C(=O)NC3CCc4ccccc43)N2C1=O (some centres unmarked) [SM-431]	< 1000	< 1000	< 1	–
CN[C@@H](C)C(=O)N[C@H]1CN(C(=O)CC2CCCC2)CC[C@H]2CC[C@@H](C(=O)NC(c3ccccc3)c3ccccc3)N2C1=O [SM-405]	< 1000	< 1000	< 1	–
CN[C@@H](C)C(=O)N[C@H]1CN(C(=O)CCCc2ccccc2)CC[C@H]2CC[C@@H](C(=O)NC(c3ccccc3)c3ccccc3)N2C1=O [SM-421]	< 1000	< 1000	< 1	–
CN[C@@H](C)C(=O)N[C@H]1CN(C(=O)CC(C)C)CC[C@H]2CC[C@@H](C(=O)N[C@H]3CCc4ccccc43)N2C1=O [SM-425]	< 10000	< 1000	< 10	–
CN[C@@H](C)C(=O)N[C@H]1CN(C(=O)C[C@@H](O)C(=O)O)CC[C@H]2CC[C@@H](C(=O)NC(c3ccccc3)c3ccccc3)N2C1=O [SM-413]	< 100000	< 1000	< 100	–
CN[C@@H](C)C(=O)N[C@H]1CN(C(=O)Cc2ccc(F)cc2)CC[C@H]2CC[C@@H](C(=O)NC3CCCc4ccccc43)N2C1=O (some centres unmarked) [SM-377]	< 1000	< 100	< 1	–
CN[C@@H](C)C(=O)N[C@H]1CN(C(=O)Cc2ccc(F)cc2)CC[C@H]2CCC(C(=O)NC(c3ccccc3)c3ccccc3)N2C1=O (some centres unmarked) [SM-350]	< 1000	< 1000	< 1	–
CN[C@@H](C)C(=O)N[C@H]1CN(C(=O)CCc2ccc(F)cc2)CC[C@H]2CC[C@@H](C(=O)NC(c3ccc(F)cc3)c3ccc(F)cc3)N2C1=O [SM-404]	< 1000	< 1000	< 1	–
CN[C@@H](C)C(=O)N[C@H]1CN(C(=O)Cc2ccccc2)CCC[C@H]2CC[C@@H](C(=O)NC(c3ccccc3)c3ccccc3)N2C1=O [SM-207]	–	< 1000	–	IC50 ([1]; listed as SH-207): < 1000 nM; IC50 [1]: < 10000 nM; IC50 ([2]; 4 days, WST-8, listed as SH-207, read-out: MDA-MB-231 IC50): < 1 µM; IC50 ([2]; 4 days, WST-8, read-out: MDA-MB-231 IC50): < 10 µM

Structure (SMILES)	IC50 ([1]; Homo sapiens, SK-OV-3, 96 h) [nM]	IC50 (XIAP BIR3) [nM]	IC50 [2, 3] [µM]	other results
CN[C@@H](C)C(=O)N[C@H]1CN(C(=O)CC(C)C)CC[C@H]2CC[C@@H](C(=O)NCc3cccc4ccccc34)N2C1=O [SM-430]	< 10000	< 1000	< 10	–
CN[C@@H](C)C(=O)N[C@H]1CN(C(=O)Cc2ccc(F)cc2)CC[C@H]2CC[C@@H](C(=O)NCc3ccc(F)cc3)N2C1=O [SM-402]	< 1000	< 1000	< 1	–
CN[C@@H](C)C(=O)N[C@H]1CN(C(=O)Cc2ccccc2)CC[C@H]2CC[C@@H](C(=O)NCc3ccc(F)cc3)N2C1=O [SM-401]	< 1000	< 1000	< 1	–
CN[C@@H](C)C(=O)N[C@H]1CN(C(=O)CCCC(C)C)CC[C@H]2CC[C@@H](C(=O)NC(c3ccccc3)c3ccccc3)N2C1=O [SM-422]	< 1000	< 1000	< 1	–
CN[C@@H](C)C(=O)N[C@H]1CN(C(=O)CC(C)C)CC[C@H]2CC[C@@H](C(=O)NCc3ccc(C(F)(F)F)cc3)N2C1=O [SM-426]	< 10000	< 10000	< 10	–
CN[C@@H](C)C(=O)N[C@H]1CNCC[C@H]2CC[C@@H](C(=O)NC(c3ccccc3)c3ccccc3)N2C1=O [SM-227]	< 10000	–	< 10	–
CCCC(=O)N1CC[C@H]2CC[C@@H](C(=O)NC(c3ccccc3)c3ccccc3)N2C(=O)[C@@H](NC(=O)[C@H](C)NC)C1 [SM-409]	< 1000	< 1000	< 1	–
CN[C@@H](C)C(=O)N[C@H]1CN(C(=O)CC(C)(C)C)CC[C@H]2CC[C@@H](C(=O)NC(c3ccccc3)c3ccccc3)N2C1=O [SM-415]	< 1000	< 1000	< 1	–
CC(C)CC(=O)N1CC[C@H]2CC[C@@H](C(=O)NC(c3ccccc3)c3ccccc3)N2C(=O)[C@@H](NC(=O)[C@H](C)NCCO)C1 [SM-213]	< 10000	< 1000	< 10	–
CN[C@@H](C)C(=O)N[C@H]1CN(C(=O)[C@H]2CC[C@H](O)C2)CC[C@H]2CC[C@@H](C(=O)NC(c3ccccc3)c3ccccc3)N2C1=O [SM-418]	< 10000	< 1000	< 10	–
CN[C@@H](C)C(=O)N[C@H]1CN(C(=O)CC(C)C)CC[C@H]2CC[C@@H](C(=O)NCc3ccc(-c4ccccc4)cc3)N2C1=O [SM-434]	< 10000	< 10000	< 10	–
CN[C@@H](C)C(=O)N[C@H]1CN(C(=O)CC(C)C)CC[C@H]2CC[C@@H](C(=O)NCC(c3ccccc3)c3ccccc3)N2C1=O [SM-432]	< 10000	< 1000	< 10	–
CN[C@@H](C)C(=O)N[C@H]1CN(C(=O)CC(C)C)CC[C@H]2CC[C@@H](C(=O)NC3CCCCC3)N2C1=O [SM-423]	< 100000	< 10000	< 100	–
CN[C@@H](C)C(=O)N[C@H]1CN(C(=O)CCc2ccc(F)cc2)CC[C@H]2CC[C@@H](C(=O)NC(c3ccccc3)c3ccccc3)N2C1=O [SM-407]	< 1000	< 1000	< 1	–
CN[C@@H](C)C(=O)N[C@H]1CN(C(=O)CCc2ccccc2)CC[C@H]2CC[C@@H](C(=O)NC(c3ccccc3)c3ccccc3)N2C1=O [SM-408]	< 1000	< 1000	< 1	–
CN[C@@H](C)C(=O)N[C@H]1CN(C(=O)CC(C)C)CC[C@H]2CC[C@@H](C(=O)NCc3ccccc3-c3ccccc3)N2C1=O [SM-433]	< 10000	< 1000	< 10	–
CN[C@@H](C)C(=O)N[C@H]1CN(C(C)=O)CC[C@H]2CCC(C(=O)NC(c3ccccc3)c3ccccc3)N2C1=O (some centres unmarked) [SM-330]	–	–	–	IC50 [2, 4]: < 1 µM
